The source of these data is patent US5869602A, “Peptide derivatives” (Novo Nordisk A/S, priority 1995, dated 1999).

Non-standard residues stand in square brackets, D forms with d. Residues, ends and D or L forms follow the SMILES beside them. *: point of attachment. Myristoyl = CCCCCCCCCCCCCC(=O)*; Nle = CCCC[C@H](N)C(=O)O; For = O=C*

Data set [1] in a line: Determination of lipophilicity relative to human insulin (k'rel) by RP-HPLC. The following applies: pH 7.3. The format is physicochemical. As to the method:
The lipophilicity of peptides and peptide derivatives relative to human insulin, k'rel, was measured on a LiChrosorb RP18 (5 μm, 4×250 mm) HPLC column by isocratic elution at 40° C. using mixtures of A) 0.1M sodium phosphate buffer, pH 7.3, containing 10% acetonitrile, and B) 50% acetonitrile in water as eluents. The elution was monitored by following the UV absorption of the eluate at 214 nm. Void time, t0, was found by injecting 0.1 mM sodium nitrate. Retention time for human insulin. tinsulin, was adjusted to at least 2t0 by varying the ratio between the A and B solutions. k'rel =(tderivate -t0)/(tinsulin -t0).

The test system of the next data set is rabbits. Briefly: Blood glucose in rabbits pre-treated with Insulin Actrapid, after SC injection. The format is in vivo.
[2] abbreviates: LiChrosorb RP18 HPLC, isocratic elution, 40° C.

Experimental for rabbits: The resulting solution was sterilized by filtration and transferred to a vial.
Blood was sampled at times: -60, 0, 15, 30, 60, 120, 180 and 240 min, and the glucose concentration determined by the hexokinase method.

As to `CCCCCCCCCCCCCC(=O)NCCCC[C@H](NC(=O)[C@H](Cc1ccc(O)cc1)NC(=O)[C@H](CCCC)NC(=O)[C@H](Cc1ccccc1)NC(=O)[C@H](CC(C)C)NC(=O)[C@H](CCCC)NC=O)C(=O)O` [Example 1, For-Nle-Leu-Phe-Nle-Tyr-Lys(N^ε -tetradecanoyl)-OH] (For-[Nle]LF[Nle]YK(Myristoyl)-OH), the “lipophilicity relative to human insulin, k'rel” value in data set [1] (setting [2]) is on record as 8.2×10^3.
Consider `CCCCCCCCCCCCCC(=O)NCCCC[C@H](NC(=O)[C@H](Cc1ccc(O)cc1)NC(=O)[C@@H](NC(=O)[C@H](Cc1ccccc1)NC(=O)[C@H](Cc1ccccc1)NC(=O)[C@H](Cc1c[nH]cn1)NC(=O)[C@H](Cc1ccccc1)NC(=O)[C@@H]1CCCN1C(=O)[C@H](Cc1c[nH]cn1)NC(=O)[C@@H]1CCCN1)C(C)C)C(=O)O` [Example 3] (H-PHPFHFFVYK(Myristoyl)-OH), for which the “lipophilicity relative to human insulin, k'rel” value in data set [1] (setting [2]) was 5.3×10^3.
As to `CCCC[C@H](NC=O)C(=O)N[C@@H](CC(C)C)C(=O)N[C@@H](Cc1ccccc1)C(=O)N[C@@H](CCCC)C(=O)N[C@@H](Cc1ccc(O)cc1)C(=O)N[C@@H](CCCCN)C(=O)O` [For-Nle-Leu-Phe-Nle-Tyr-Lys-OH] (HELM PEPTIDE1{[O=C[*:2]].[Nle].L.F.[Nle].Y.K}$$$$V2.0), the “lipophilicity relative to human insulin, k'rel” value in data set [1] is recorded as 2.3.
Consider `CC(C)C[C@H](NC(=O)[C@H](Cc1ccccc1)NC(=O)CNC(=O)[C@@H](C)NC(=O)[C@@H](N)Cc1ccc(O)cc1)C(=O)N[C@@H](CCCCN)C(=O)O` [H-Tyr-D-Ala-Gly-Phe-Leu-Lys-OH] (HELM PEPTIDE1{Y.[dA].G.F.L.K}$$$$V2.0), for which the “lipophilicity relative to human insulin, k'rel” value in data set [1] (setting [2]) is recorded as 3.0×10^-3.
Still for that read-out and setting: under H-PHPFHFFVYK-OH stands 2.3×10^2.
Consider “Lys^30 (Nε-decanoyl) glucagon [Example 6]”, for which the blood glucose concentration came to 51 mg glucose/100 ml in the data set with rabbits (0 min (time of SC injection of test substance)); 79 mg glucose/100 ml in the data set with rabbits (15 min after SC injection); 93 mg glucose/100 ml in the data set on rabbits (30 min after SC injection); 114 mg glucose/100 ml in the data set on rabbits (60 min after SC injection); 112 mg glucose/100 ml in the data set with rabbits (120 min after SC injection); 116 mg glucose/100 ml in the data set with rabbits (180 min after SC injection). Also, the blood glucose concentration with rabbits (240 min after SC injection) turned out to be 110 mg glucose/100 ml; with rabbits (-60 min (time of 2 IU Insulin Actrapid, before test substance)), 94 mg glucose/100 ml. In addition, in the data set on rabbits (SC, conclusion from the table), the “blood glucose raising effect compared with glucagon” value was “prolonged action”.
